What was measured:
[1] = Modulation of calcium release-activated calcium channel in human jurkat cells assessed as inhibition of PHA/PMA/ionomycin-stimulated IL2 production incubated 10 mins prior to PHA/PMA/ionomycin-challenge measured after 18 to 20 hrs; type: cell-based
[2] = Modulation of calcium release-activated calcium channel in human whole blood T cells assessed as inhibition of thapsigargin-stimulated IL2 production incubated 30 mins prior to thapsigargin-challenge measured after overnight incubation by AlphaLISA IL-2 assay; type: cell-based; conditions: T-cell
[3] = Modulation of calcium release-activated calcium channel in mitomycin C-stimulated human PBMC assessed as [3H]thymidine incorporation after 4 days by topcount scintillation counting analysis

Row | IC50 [1] [nM] | IC50 [2] [nM] | IC50 [3] [nM] | SMILES
1 | 70 | 320 | 330 | CCn1nc(-c2cccnc2)cc1-c1ccc2c(c1)OCC(c1c(F)cccc1F)N2 (stereo not drawn)
2 | 30 | 430 | 190 | Cc1sc(-c2cccnc2)nc1-c1ccc2c(c1)OCC(c1c(F)cccc1F)N2 (stereo not drawn)
3 | 30 | 520 | 100 | CCc1sc(-c2cccnc2)nc1-c1ccc2c(c1)OCC(c1c(F)cccc1F)N2 (stereo not drawn)
4 | 20 | 870 | 180 | CCc1sc(-c2cnccn2)nc1-c1ccc2c(c1)OCC(c1c(F)cccc1F)N2 (stereo not drawn)
5 | 20 | 320 | 440 | CCc1sc(-c2ccncc2)nc1-c1ccc2c(c1)OCC(c1c(F)cccc1F)N2 (stereo not drawn)
6 | 30 | 360 | 430 | CCc1sc(-c2cc(C)on2)nc1-c1ccc2c(c1)OCC(c1c(F)cccc1F)N2 (stereo not drawn)
